The values below are quoted from earlier work in patent US10294298B2, “Human PAC1 antibodies” (AMGEN INC., priority 2013, dated 2019).

pEC50: −log10 of the molar value.

In data set [1] the target is T1, VPAC1 (Homo sapiens, UniProt P32241).
T1 sequence (P32241 31-457): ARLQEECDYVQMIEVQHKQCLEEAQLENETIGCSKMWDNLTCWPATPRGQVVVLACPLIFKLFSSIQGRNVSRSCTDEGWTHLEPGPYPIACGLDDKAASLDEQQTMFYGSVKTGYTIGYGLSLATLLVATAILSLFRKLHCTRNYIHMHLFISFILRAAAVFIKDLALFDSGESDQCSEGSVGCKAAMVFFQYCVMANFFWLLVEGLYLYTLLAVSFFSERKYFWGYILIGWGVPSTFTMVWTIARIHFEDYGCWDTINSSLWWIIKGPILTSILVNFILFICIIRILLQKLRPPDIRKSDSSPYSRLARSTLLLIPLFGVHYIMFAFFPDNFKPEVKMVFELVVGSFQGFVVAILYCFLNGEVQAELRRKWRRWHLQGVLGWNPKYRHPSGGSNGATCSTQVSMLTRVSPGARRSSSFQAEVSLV
As to conditions: receptor agonist; background table.

The target in data set [2] is T2, VPAC2 (Homo sapiens, UniProt P41587).
T2 sequence (P41587 24-438): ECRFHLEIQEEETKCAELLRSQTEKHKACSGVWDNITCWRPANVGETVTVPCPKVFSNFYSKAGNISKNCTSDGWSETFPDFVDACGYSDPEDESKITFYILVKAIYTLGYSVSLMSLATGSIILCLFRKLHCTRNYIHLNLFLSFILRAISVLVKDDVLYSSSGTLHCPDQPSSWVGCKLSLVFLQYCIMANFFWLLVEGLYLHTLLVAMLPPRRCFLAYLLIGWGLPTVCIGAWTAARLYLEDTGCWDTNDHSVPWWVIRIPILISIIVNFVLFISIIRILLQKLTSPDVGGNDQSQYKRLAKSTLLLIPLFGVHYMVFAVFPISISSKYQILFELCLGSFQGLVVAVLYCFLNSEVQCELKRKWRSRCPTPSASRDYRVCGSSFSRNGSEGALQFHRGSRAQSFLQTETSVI
As to conditions: receptor agonist; background table.

Broadly, the pEC50 is the EC50 on a negative log10 scale, so that one unit is a factor of ten. As for Maxadilan, the pEC50 in data set [1] and in data set [2] was < 6.00 in each case.
